The target in one assay is hPAD4 (Homo sapiens, UniProt Q9UM07). Kind of assay: hPAD4 RFMS (RapidFire mass spectrometry) PAD4 inhibition assay.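 On hPAD4 RFMS pIC50: grade E means pIC50 at most 4 and F means pIC50 4.0 to 5.0.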 It is filed as biochemical. Conditions: hPAD4 enzyme, RFMS readout. How it is done: (§1) Compounds of the present invention were assayed as inhibitors of PAD4 using the assay protocol described below.
(§2) Compound stock solutions were stored at RT. […] Final assay conditions were as follows:
(§3) Total incubation time: 65 mins at 37° C.
(§4) Stop solution: 40 μl 5% TCA in ACN
(§5) The compound numbers correspond to the compound numbers in Table 1. […] The term pIC50=−log(IC50). […] “NA” stands for “not assayed.”

The target of another assay is mPAD4 (Mus musculus, UniProt Q9Z183). Kind of assay: mPAD4 RFMS PAD4 inhibition assay.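 On mPAD4 RFMS pIC50: grade E means pIC50 at most 4 and F means pIC50 4.0 to 5.0.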 It is filed as biochemical. To be noted: mPAD4, RFMS readout. The method, then:
as §1, §2, §3, §4, §5

[1] abbreviates: pIC50=−log(IC50), read-out: hPAD4 RFMS pIC50 (converted).
[2] abbreviates: pIC50=−log(IC50), read-out: mPAD4 RFMS pIC50 (converted).

Each structure is given as a SMILES string. Where a name gives a salt, the structure may show the parent alone. Read-outs that look alike come from different tables or passages of the source.

Sequence of mPAD4 (Q9Z183 whole entry): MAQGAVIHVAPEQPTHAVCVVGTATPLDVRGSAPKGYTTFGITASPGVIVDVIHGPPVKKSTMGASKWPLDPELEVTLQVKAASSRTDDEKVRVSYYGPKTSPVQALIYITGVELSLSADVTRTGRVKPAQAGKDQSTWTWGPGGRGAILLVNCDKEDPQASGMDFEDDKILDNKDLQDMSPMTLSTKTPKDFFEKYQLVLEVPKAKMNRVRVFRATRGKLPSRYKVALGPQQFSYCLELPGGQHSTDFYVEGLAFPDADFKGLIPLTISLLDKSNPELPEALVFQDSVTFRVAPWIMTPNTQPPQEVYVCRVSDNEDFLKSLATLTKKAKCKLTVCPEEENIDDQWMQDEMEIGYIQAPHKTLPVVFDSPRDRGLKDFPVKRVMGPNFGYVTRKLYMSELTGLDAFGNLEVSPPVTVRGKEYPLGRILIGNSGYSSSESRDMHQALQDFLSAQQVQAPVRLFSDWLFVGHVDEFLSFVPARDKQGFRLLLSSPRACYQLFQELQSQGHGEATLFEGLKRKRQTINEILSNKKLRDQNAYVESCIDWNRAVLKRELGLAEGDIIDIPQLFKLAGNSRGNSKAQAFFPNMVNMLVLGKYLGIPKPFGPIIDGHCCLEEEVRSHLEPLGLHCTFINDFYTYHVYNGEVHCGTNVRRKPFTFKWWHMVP
Sequence of hPAD4 (Q9UM07 whole entry): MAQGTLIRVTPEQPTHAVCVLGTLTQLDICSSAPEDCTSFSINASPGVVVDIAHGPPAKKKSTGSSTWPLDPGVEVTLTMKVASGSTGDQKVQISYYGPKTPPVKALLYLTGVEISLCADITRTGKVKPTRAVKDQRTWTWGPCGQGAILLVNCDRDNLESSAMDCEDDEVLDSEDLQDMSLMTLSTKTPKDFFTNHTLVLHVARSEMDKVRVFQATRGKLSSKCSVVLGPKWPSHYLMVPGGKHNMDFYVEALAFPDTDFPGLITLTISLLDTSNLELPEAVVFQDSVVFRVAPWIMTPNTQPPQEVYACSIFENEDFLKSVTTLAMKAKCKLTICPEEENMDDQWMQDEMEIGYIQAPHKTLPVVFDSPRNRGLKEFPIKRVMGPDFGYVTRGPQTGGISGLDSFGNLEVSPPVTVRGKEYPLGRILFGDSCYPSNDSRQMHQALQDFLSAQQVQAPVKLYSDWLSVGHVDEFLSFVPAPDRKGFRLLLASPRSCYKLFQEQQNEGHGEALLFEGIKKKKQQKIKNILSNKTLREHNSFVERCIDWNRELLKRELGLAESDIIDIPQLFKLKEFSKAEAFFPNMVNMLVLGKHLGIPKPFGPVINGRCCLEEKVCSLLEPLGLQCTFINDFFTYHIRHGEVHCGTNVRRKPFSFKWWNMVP

In the case of `COc1ccc2cc(-c3nc4cc(C(=O)N5CCC[C@@H](N)C5)cc(OC)c4n3CC(F)F)n(CC3CC3)c2n1` [Compound I-94, (3R)-1-{2-[1-(cyclopropylmethyl)-6-methoxy-1H-pyrrolo[2,3-b]pyridin-2-yl]-1-(2,2-difluoroethyl)-7-methoxy-1H-1,3-benzodiazole-5-carbonyl}piperidin-3-amine], the IC50 on hPAD4 (setting [1]), at hPAD4 (read-out: hPAD4 RFMS IC50), on mPAD4 (setting [2]) and on mPAD4 (read-out: mPAD4 RFMS IC50) was < 1 µM throughout.

Take `COc1cc(C(=O)N2CC3(CCOC[C@@H]3N)C2)cc2nc(-c3cc4cccnc4n3CC3CC3)n(C)c12` [Compound I-95]: the IC50 at hPAD4 (setting [1]) was 10 to 100 µM; on hPAD4 (read-out: hPAD4 RFMS IC50), > 10 µM; on mPAD4 (setting [2]) it was 10 to 100 µM; at mPAD4 (read-out: mPAD4 RFMS IC50) it was > 10 µM.

With `Cn1c(-c2cc3cccnc3n2CC2CC2)nc2cc(C(=O)N3C[C@H](N)C[C@@H](F)C3)cc(OC(F)F)c21` [Compound I-98], the IC50 at hPAD4 (setting [1]), on hPAD4 (read-out: hPAD4 RFMS IC50), at mPAD4 (setting [2]) and at mPAD4 (read-out: mPAD4 RFMS IC50) was < 1 µM each time.

Turning to `COc1cc(C(=O)N2CCCC3(CNC3)C2)cc2nc(-c3cc4cccnc4n3CC3CC3)n(C)c12` [Compound I-100], the IC50 at hPAD4 (setting [1]) was > 100 µM; at hPAD4 (read-out: hPAD4 RFMS IC50), > 10 µM; on mPAD4 (setting [2]), > 100 µM; on mPAD4 (read-out: mPAD4 RFMS IC50) it was > 10 µM.

On to `COc1cc(C(=O)N2CCC[C@@H](N)C2)cc2nc(-c3cc4cccnc4n3[C@H](C)C3CC3)n(C)c12` [Compound I-101, (3R)-1-(2-{1-[(1R)-1-cyclopropylethyl]-1H-pyrrolo[2,3-b]pyridin-2-yl}-7-methoxy-1-methyl-1H-1,3-benzodiazole-5-carbonyl)piperidin-3-amine], for which the IC50 at hPAD4 (setting [1]) was 1 to 10 µM; at hPAD4 (read-out: hPAD4 RFMS IC50), 1 to 5 µM; at mPAD4 (setting [2]) it was 1 to 10 µM; at mPAD4 (read-out: mPAD4 RFMS IC50) it was 1 to 5 µM.

In the case of `COc1cc(C(=O)N2CCC[C@@H](N)C2)cc2nc(-c3cc4cccnc4n3[C@@H](C)C3CC3)n(C)c12` [Compound I-102, (3R)-1-(2-{1-[(1S)-1-cyclopropylethyl]-1H-pyrrolo[2,3-b]pyridin-2-yl}-7-methoxy-1-methyl-1H-1,3-benzodiazole-5-carbonyl)piperidin-3-amine], the IC50 at hPAD4 (setting [1]) was 1 to 10 µM; at hPAD4 (read-out: hPAD4 RFMS IC50) it was < 1 µM; at mPAD4 (setting [2]), 1 to 10 µM; at mPAD4 (read-out: mPAD4 RFMS IC50), 1 to 5 µM.

For the compound `Cc1cc2c(cc1C(=O)N1CCC[C@@H](N)C1)nc(-c1cc3cccnc3n1CC1CC1)n2C` [Compound I-103, (3R)-1-{2-[1-(cyclopropylmethyl)-1H-pyrrolo[2,3-b]pyridin-2-yl]-1,6-dimethyl-1H-1,3-benzodiazole-5-carbonyl}piperidin-3-amine hydrochloride], the IC50 was 10 to 100 µM on hPAD4 (setting [1]), > 10 µM on hPAD4 (read-out: hPAD4 RFMS IC50), 10 to 100 µM on mPAD4 (setting [2]) and > 10 µM at mPAD4 (read-out: mPAD4 RFMS IC50).

Turning to `COc1ccc2cc(-c3nc4cc(C(=O)N5CCC[C@@H](N)C5)cc(OC(F)F)c4n3C)n(CC3CC3)c2n1` [Compound I-104, (3R)-1-{2-[1-(cyclopropylmethyl)-6-methoxy-1H-pyrrolo[2,3-b]pyridin-2-yl]-7-(difluoromethoxy)-1-methyl-1H-1,3-benzodiazole-5-carbonyl}piperidin-3-amine], the IC50 at hPAD4 (setting [1]), at hPAD4 (read-out: hPAD4 RFMS IC50), on mPAD4 (setting [2]) and at mPAD4 (read-out: mPAD4 RFMS IC50) was < 1 µM throughout.

For the compound `CCc1ccc2cc(-c3nc4cc(C(=O)N5CCC[C@@H](N)C5)cc(OC)c4n3CC)n(CC3CC3)c2n1` [Compound I-105, (3R)-1-{2-[1-(cyclopropylmethyl)-6-ethyl-1H-pyrrolo[2,3-b]pyridin-2-yl]-1-ethyl-7-methoxy-1H-1,3-benzodiazole-5-carbonyl}piperidin-3-amine], the IC50 at hPAD4 (setting [1]), on hPAD4 (read-out: hPAD4 RFMS IC50), at mPAD4 (setting [2]) and on mPAD4 (read-out: mPAD4 RFMS IC50) was < 1 µM each time.

On to `CCn1c(-c2cc3ccc(OC)nc3n2CC2CC2)nc2cc(C(=O)N3CCC[C@@H](N)C3)cc(OC)c21` [Compound I-106], for which the IC50 at hPAD4 (setting [1]), at hPAD4 (read-out: hPAD4 RFMS IC50), on mPAD4 (setting [2]) and at mPAD4 (read-out: mPAD4 RFMS IC50) was < 1 µM each time.

Regarding `COc1cc(C(=O)N2CC[C@]3(CNCCC3(F)F)C2)cc2nc(-c3cc4cccnc4n3CC3CC3)n(C)c12` [Compound I-107], the IC50 at hPAD4 (setting [1]) is 10 to 100 µM; on hPAD4 (read-out: hPAD4 RFMS IC50) it was > 10 µM; at mPAD4 (setting [2]) it was 10 to 100 µM; at mPAD4 (read-out: mPAD4 RFMS IC50) it was > 10 µM.

As for `COc1cc(C(=O)N2CC[C@@]3(CNCCC3(F)F)C2)cc2nc(-c3cc4cccnc4n3CC3CC3)n(C)c12` [Compound I-108], the IC50 is 10 to 100 µM at hPAD4 (setting [1]), > 10 µM on hPAD4 (read-out: hPAD4 RFMS IC50), 10 to 100 µM on mPAD4 (setting [2]) and > 10 µM at mPAD4 (read-out: mPAD4 RFMS IC50).

In the case of `COc1ccc2cc(-c3nc4cc(C(=O)N5C[C@H](N)C[C@@H](F)C5)cc(OC(F)F)c4n3C)n(CC3CC3)c2n1` [Compound I-109, (3R,5R)-1-{2-[1-(cyclopropylmethyl)-6-methoxy-1H-pyrrolo[2,3-b]pyridin-2-yl]-7-(difluoromethoxy)-1-methyl-1H-1,3-benzodiazole-5-carbonyl}-5-fluoropiperidin-3-amine], the IC50 on hPAD4 (setting [1]), at hPAD4 (read-out: hPAD4 RFMS IC50), at mPAD4 (setting [2]) and at mPAD4 (read-out: mPAD4 RFMS IC50) was < 1 µM throughout.

On to `Cn1c(-c2cc3cccnc3n2CC2CC(C)(O)C2)nc2cc(C(=O)N3CCC[C@@H](N)C3)ccc21` (stereo partly drawn) [Compound I-110, 3-[(2-{5-[(3R)-3-Aminopiperidine-1-carbonyl]-1-methyl-1H-1,3-benzodiazol-2-yl}-1H-pyrrolo[2,3-b]pyridin-1-yl)methyl]-1-methylcyclobutan-1-ol], for which the IC50 at hPAD4 (setting [1]) was 1 to 10 µM; at hPAD4 (read-out: hPAD4 RFMS IC50) it was 1 to 5 µM; at mPAD4 (setting [2]), 10 to 100 µM; at mPAD4 (read-out: mPAD4 RFMS IC50), > 10 µM.

Consider `CCOc1cc(C(=O)N2CC(N)CCC2C)cc2nc(-c3cc4cccnc4n3CC3CC3)n(C)c12` (centres unmarked) [Compound I-111], for which the IC50 at hPAD4 (setting [1]) is 1 to 10 µM; on hPAD4 (read-out: hPAD4 RFMS IC50), 1 to 5 µM; on mPAD4 (setting [2]) it was < 1 µM; on mPAD4 (read-out: mPAD4 RFMS IC50) it was < 1 µM.

With `Cn1c(-c2cc3cccnc3n2CC2CC2)nc2cc(C(=O)N3CCC[C@@H](N)C3)cc(C(N)=O)c21` [Compound I-112, 5-[(3R)-3-aminopiperidine-1-carbonyl]-2-[1-(cyclopropylmethyl)-1H-pyrrolo[2,3-b]pyridin-2-yl]-1-methyl-1H-1,3-benzodiazole-7-carboxamide hydrochloride], the IC50 at hPAD4 (setting [1]) is 1 to 10 µM; at hPAD4 (read-out: hPAD4 RFMS IC50), 5 to 10 µM; at mPAD4 (setting [2]) it was 1 to 10 µM; on mPAD4 (read-out: mPAD4 RFMS IC50) it was 1 to 5 µM.

As to `COc1cc(C(=O)N2CCC[C@@H](N)C2)cc2nc(-c3cc4cccnc4n3CC3CC(C)(O)C3)n(C)c12` (some centres unmarked) [Compound I-113], the IC50 at hPAD4 (setting [1]) was 1 to 10 µM; on hPAD4 (read-out: hPAD4 RFMS IC50), 1 to 5 µM; on mPAD4 (setting [2]) it was 1 to 10 µM; on mPAD4 (read-out: mPAD4 RFMS IC50), 5 to 10 µM.

For `COc1cc(C(=O)N2CCC[C@@H](N)C2)cc2nc(-c3cc4cccnc4n3CC3CC3)n(CC3CC(C)(O)C3)c12` (some centres unmarked) [Compound I-114], the IC50 at hPAD4 (setting [1]), on hPAD4 (read-out: hPAD4 RFMS IC50), on mPAD4 (setting [2]) and on mPAD4 (read-out: mPAD4 RFMS IC50) was < 1 µM in each case.

Take `COc1cc(C(=O)N2CC3CCC2C(N)C3)cc2nc(-c3cc4cccnc4n3CC3CC3)n(C)c12` (centres unmarked) [Compound I-115]: the IC50 on hPAD4 (setting [1]), at hPAD4 (read-out: hPAD4 RFMS IC50), at mPAD4 (setting [2]) and at mPAD4 (read-out: mPAD4 RFMS IC50) was < 1 µM each time.

Regarding `CCn1c(-c2cc3cccnc3n2CC2CC2)nc2cc(C(=O)N3CCC[C@@H](N)C3)cc(OC)c21` [Compound I-119, (3R)-1-{2-[1-(cyclopropylmethyl)-1H-pyrrolo[2,3-b]pyridin-2-yl]-1-ethyl-7-methoxy-1H-1,3-benzodiazole-5-carbonyl}piperidin-3-amine], the IC50 on hPAD4 (setting [1]), on hPAD4 (read-out: hPAD4 RFMS IC50), on mPAD4 (setting [2]) and on mPAD4 (read-out: mPAD4 RFMS IC50) was < 1 µM in each case.

With `COc1cc(C(=O)N2CC[C@@H](OC)[C@@H](N)C2)cc2nc(-c3cc4cccnc4n3CC3CC3)n(C)c12` [Compound I-121], the IC50 on hPAD4 (setting [1]), at hPAD4 (read-out: hPAD4 RFMS IC50), on mPAD4 (setting [2]) and on mPAD4 (read-out: mPAD4 RFMS IC50) was < 1 µM throughout.

`COc1cc(C(=O)N2CCOC3(CNC3)C2)cc2nc(-c3cc4cccnc4n3CC3CC3)n(C)c12` [Compound I-122]: the “hPAD4 RFMS pIC50” value on hPAD4 (pIC50=−log(IC50)) is given as “E/F”. Also, the IC50 on hPAD4 (read-out: hPAD4 RFMS IC50) is > 10 µM; at mPAD4 (setting [2]), > 100 µM; at mPAD4 (read-out: mPAD4 RFMS IC50) it was > 10 µM.

Consider `COc1ccc2cc(-c3nc4cc(C(=O)N5C[C@H](N)C[C@@H](F)C5)cc(OC)c4n3C)n(CC3CC3)c2n1` [Compound I-123], for which the IC50 on hPAD4 (setting [1]), on hPAD4 (read-out: hPAD4 RFMS IC50), at mPAD4 (setting [2]) and at mPAD4 (read-out: mPAD4 RFMS IC50) was < 1 µM throughout.

Regarding `CO[C@@H]1CCN(C(=O)c2cc(OC(F)F)c3c(c2)nc(-c2cc4cccnc4n2CC2CC2)n3C)C[C@@H]1N` [Compound I-124], the IC50 on hPAD4 (setting [1]) was 10 to 100 µM; at hPAD4 (read-out: hPAD4 RFMS IC50), > 10 µM; on mPAD4 (setting [2]), 1 to 10 µM; on mPAD4 (read-out: mPAD4 RFMS IC50) it was 5 to 10 µM.

Consider `COc1cc(C(=O)N2C[C@H]3COC[C@@]3(CN)C2)cc2nc(-c3cc4cccnc4n3CC3CC3)n(C)c12` [Compound I-125], for which the IC50 is 10 to 100 µM at hPAD4 (setting [1]), > 10 µM at hPAD4 (read-out: hPAD4 RFMS IC50), 10 to 100 µM at mPAD4 (setting [2]) and > 10 µM on mPAD4 (read-out: mPAD4 RFMS IC50).

Regarding `COc1cc(C(=O)N2C[C@@H]3COC[C@]3(CN)C2)cc2nc(-c3cc4cccnc4n3CC3CC3)n(C)c12` [Compound I-126], the IC50 at hPAD4 (setting [1]) was 10 to 100 µM; at hPAD4 (read-out: hPAD4 RFMS IC50), > 10 µM; on mPAD4 (setting [2]), 10 to 100 µM; at mPAD4 (read-out: mPAD4 RFMS IC50), > 10 µM.
